Activity calls are given as the source filed them. Rule as the data show it, for most assays here: actives have a measured Kd and inactives only a lower limit.

Assay [1] concerns the target T1, TGF-beta receptor type-1 (Homo sapiens, UniProt P36897).
T1 sequence (P36897 whole entry): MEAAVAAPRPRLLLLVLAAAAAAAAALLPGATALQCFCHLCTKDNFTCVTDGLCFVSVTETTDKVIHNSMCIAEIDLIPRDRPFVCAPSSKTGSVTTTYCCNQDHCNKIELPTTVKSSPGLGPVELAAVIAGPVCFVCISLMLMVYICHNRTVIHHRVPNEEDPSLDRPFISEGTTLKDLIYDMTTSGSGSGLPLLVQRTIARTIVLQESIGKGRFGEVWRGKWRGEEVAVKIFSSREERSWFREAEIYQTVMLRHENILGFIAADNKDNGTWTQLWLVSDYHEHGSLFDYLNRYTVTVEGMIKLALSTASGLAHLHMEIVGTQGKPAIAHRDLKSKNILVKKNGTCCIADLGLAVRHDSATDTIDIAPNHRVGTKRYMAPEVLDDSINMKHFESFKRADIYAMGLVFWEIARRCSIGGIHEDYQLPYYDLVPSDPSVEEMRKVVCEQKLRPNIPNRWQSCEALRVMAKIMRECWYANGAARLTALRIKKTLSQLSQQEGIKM

Assay [2] has as its target T2, Glycine--tRNA ligase (Homo sapiens, UniProt P41250).
T2 sequence (P41250 whole entry): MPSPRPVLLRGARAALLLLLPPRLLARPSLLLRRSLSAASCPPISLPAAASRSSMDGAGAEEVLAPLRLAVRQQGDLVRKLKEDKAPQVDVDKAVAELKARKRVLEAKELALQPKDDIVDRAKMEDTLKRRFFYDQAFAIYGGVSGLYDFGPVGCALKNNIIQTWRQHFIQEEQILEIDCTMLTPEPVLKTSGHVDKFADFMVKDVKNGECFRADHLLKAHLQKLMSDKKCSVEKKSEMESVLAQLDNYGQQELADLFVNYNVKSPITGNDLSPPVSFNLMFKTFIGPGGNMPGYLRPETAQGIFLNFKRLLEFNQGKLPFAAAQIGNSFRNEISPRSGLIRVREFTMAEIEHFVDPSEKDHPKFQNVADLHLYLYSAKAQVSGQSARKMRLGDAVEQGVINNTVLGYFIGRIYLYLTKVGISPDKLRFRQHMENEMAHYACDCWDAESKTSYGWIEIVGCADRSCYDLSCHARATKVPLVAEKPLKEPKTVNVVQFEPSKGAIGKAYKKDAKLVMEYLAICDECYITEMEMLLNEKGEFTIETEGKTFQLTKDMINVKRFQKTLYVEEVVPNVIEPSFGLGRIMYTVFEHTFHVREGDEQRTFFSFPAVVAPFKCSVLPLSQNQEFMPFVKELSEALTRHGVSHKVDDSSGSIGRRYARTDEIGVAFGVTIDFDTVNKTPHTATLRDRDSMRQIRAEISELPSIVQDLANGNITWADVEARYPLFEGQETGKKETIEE

The target of assay [3] is STE20-like serine/threonine-protein kinase (Homo sapiens, UniProt Q9H2G2).
In assay [4] the target is Bone morphogenetic protein receptor type-1A (Homo sapiens, UniProt P36894).
Assay [5] addresses T3, Interleukin-1 receptor-associated kinase 4 (Homo sapiens, UniProt Q9NWZ3).
T3 sequence (Q9NWZ3 whole entry): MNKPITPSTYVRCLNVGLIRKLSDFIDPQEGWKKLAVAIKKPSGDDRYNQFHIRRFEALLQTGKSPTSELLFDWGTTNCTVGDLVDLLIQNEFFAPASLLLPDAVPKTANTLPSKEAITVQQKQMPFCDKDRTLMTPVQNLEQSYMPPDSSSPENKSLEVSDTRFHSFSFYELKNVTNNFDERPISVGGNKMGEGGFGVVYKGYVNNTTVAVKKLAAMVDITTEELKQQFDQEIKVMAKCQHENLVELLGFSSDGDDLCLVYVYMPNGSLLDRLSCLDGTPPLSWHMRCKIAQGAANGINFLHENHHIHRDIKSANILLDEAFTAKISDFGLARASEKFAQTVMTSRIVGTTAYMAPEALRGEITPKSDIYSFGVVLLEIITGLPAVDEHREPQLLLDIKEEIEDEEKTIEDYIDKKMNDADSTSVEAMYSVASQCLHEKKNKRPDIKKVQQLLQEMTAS

Assay [6] deals with T4, Mitogen-activated protein kinase kinase kinase kinase 2 (Homo sapiens, UniProt Q12851).
T4 sequence (Q12851 whole entry): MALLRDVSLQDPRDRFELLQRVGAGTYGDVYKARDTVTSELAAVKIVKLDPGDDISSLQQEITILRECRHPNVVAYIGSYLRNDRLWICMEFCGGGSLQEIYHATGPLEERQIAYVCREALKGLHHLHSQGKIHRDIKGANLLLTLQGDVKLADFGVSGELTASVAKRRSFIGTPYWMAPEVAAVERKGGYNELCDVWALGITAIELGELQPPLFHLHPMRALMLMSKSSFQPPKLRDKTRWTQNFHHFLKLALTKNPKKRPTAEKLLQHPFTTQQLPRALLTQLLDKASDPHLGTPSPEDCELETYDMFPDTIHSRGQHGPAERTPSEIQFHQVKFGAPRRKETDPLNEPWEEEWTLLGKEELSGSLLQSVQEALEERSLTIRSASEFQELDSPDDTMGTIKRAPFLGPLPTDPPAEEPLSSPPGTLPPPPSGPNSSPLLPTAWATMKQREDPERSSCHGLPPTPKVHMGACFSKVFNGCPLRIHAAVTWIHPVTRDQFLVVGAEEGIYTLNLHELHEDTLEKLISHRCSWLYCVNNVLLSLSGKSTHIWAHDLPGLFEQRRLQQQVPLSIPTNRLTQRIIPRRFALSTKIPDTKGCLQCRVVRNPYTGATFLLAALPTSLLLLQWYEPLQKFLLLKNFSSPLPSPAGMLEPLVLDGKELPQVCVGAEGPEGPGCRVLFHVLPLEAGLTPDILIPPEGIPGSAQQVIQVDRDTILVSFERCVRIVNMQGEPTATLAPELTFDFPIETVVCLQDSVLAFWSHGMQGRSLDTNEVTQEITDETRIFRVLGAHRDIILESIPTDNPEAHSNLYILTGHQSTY

The target in assay [7] is Adenylate kinase 2, mitochondrial (Homo sapiens, UniProt P54819).
Also: in the data inactive means no Kd found up to 30 µM.

Bone morphogenetic protein receptor type-1A, sequence (P36894 whole entry): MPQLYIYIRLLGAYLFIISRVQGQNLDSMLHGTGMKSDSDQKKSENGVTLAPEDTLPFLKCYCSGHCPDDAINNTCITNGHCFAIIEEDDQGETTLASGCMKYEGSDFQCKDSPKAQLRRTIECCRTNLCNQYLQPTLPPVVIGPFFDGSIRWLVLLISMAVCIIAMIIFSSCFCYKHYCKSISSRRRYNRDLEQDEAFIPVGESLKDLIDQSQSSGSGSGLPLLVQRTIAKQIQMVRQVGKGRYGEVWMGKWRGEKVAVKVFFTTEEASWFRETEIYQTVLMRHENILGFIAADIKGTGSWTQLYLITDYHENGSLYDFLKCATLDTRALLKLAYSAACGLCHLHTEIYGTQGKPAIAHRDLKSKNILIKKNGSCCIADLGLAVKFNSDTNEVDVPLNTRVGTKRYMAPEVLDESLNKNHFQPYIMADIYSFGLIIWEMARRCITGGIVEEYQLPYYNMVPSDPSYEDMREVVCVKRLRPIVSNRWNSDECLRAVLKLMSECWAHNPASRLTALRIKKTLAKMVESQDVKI
STE20-like serine/threonine-protein kinase, sequence (Q9H2G2 whole entry): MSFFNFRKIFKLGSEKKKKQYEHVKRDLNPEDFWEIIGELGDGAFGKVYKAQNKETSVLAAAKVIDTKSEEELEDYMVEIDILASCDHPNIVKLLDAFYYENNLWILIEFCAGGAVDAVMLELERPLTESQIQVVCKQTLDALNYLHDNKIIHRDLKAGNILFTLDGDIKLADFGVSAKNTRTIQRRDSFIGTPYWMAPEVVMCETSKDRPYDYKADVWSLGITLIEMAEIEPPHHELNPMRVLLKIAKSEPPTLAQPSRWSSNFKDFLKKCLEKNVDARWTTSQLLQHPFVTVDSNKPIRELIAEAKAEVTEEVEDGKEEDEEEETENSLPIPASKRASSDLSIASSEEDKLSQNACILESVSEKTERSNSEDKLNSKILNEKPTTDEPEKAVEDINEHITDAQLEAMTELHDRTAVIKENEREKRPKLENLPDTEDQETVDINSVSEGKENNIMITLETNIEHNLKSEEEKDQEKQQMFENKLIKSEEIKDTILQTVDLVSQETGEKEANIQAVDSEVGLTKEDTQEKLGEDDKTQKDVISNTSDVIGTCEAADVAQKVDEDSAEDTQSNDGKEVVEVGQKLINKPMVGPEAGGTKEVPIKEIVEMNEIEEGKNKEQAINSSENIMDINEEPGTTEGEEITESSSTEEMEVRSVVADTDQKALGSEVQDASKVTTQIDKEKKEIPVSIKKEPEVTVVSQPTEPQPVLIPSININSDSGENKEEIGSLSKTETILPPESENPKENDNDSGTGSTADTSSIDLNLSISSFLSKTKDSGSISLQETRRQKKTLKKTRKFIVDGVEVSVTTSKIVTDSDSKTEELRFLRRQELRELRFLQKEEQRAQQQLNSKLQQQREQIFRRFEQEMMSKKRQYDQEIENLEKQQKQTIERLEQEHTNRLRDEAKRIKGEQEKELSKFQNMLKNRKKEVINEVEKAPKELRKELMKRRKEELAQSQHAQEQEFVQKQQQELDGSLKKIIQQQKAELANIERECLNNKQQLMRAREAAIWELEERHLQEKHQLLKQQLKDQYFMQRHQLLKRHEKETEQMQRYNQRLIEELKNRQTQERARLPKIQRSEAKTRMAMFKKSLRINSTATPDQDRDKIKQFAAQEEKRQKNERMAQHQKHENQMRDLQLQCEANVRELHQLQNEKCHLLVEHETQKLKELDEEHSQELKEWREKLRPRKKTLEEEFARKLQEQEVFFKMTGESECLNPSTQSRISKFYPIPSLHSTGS

By Kd is commonly meant the constant that tells how readily two partners part at equilibrium. As for `CCS(=O)(=O)N1CC(CC#N)(n2cc(-c3ncnc4[nH]ccc34)cn2)C1` [BARICITINIB], the Kd in assay [1], in assay [2], in assay [3], in assay [4], in assay [5] and in assay [6] was > 30 µM (inactive) each time. Moreover, the Kd in assay [7] was > 30 µM (inactive).
`COc1ccc(-c2ccc3c(N4CCOC[C@@H]4C)nc(N4CCOC[C@@H]4C)nc3n2)cc1CO` [AZD-8055]: the Kd in assay [1], in assay [2], in assay [3], in assay [4], in assay [5] and in assay [6] was > 30 µM (inactive) in each case. In addition, the Kd in assay [7] is > 30 µM (inactive).
With `CN1CC[C@@H](c2c(O)cc(O)c3c(=O)cc(-c4ccccc4Cl)oc23)[C@@H]1CO`, the Kd in assay [1], in assay [2], in assay [3], in assay [4], in assay [5] and in assay [6] was > 30 µM (inactive) throughout. In addition, the Kd in assay [7] is > 30 µM (inactive).
As to `C=CC(=O)N1CCC(Oc2cc3c(Nc4ccc(Cl)c(Cl)c4F)ncnc3cc2OC)CC1` [POZIOTINIB], the Kd in assay [1], in assay [2], in assay [3], in assay [4], in assay [5] and in assay [6] was > 30 µM (inactive) in each case. Besides, the Kd in assay [7] is > 30 µM (inactive).
Consider `Cn1cc(-c2ccc3nnc(C(F)(F)c4ccc5ncccc5c4)n3n2)cn1` [JNJ-38877605], for which the Kd in assay [1], in assay [2], in assay [3], in assay [4], in assay [5] and in assay [6] was > 30 µM (inactive) throughout. Moreover, in assay [7], the Kd was > 30 µM (inactive).
Consider `Cc1ccc(-n2nc(C(C)(C)C)cc2NC(=O)NCc2cc(F)ccc2Oc2ccc3c(cnn3CCO)c2)cc1` [PEXMETINIB], for which the Kd in assay [1], in assay [2], in assay [3], in assay [4], in assay [5] and in assay [6] was > 30 µM (inactive) each time. Besides, in assay [7], the Kd is > 30 µM (inactive).
`Cc1c(F)cc(C(=O)NC2CC2)cc1-c1ccc(C(=O)NCC(C)(C)C)cn1` [LOSMAPIMOD]: the Kd in assay [1], in assay [2], in assay [3], in assay [4], in assay [5] and in assay [6] was > 30 µM (inactive) in each case. Further, the Kd in assay [7] was > 30 µM (inactive).
As for `COc1cc(N2CCC(N3CCN(C)CC3)CC2)ccc1Nc1ncnc(Nc2ccccc2S(=O)(=O)C(C)C)n1` [ASP-3026], the Kd in assay [1] was > 30 µM (inactive); in assay [2], > 30 µM (inactive); in assay [3], 36.3 µM (active); in assay [4], > 30 µM (inactive); in assay [5], > 30 µM (inactive); in assay [6], > 30 µM (inactive). The Kd in assay [7] is > 30 µM (inactive).
As for `CNC(=O)c1ccc(-c2cnc3ncc(Cc4ccc5ncccc5c4)n3n2)cc1F` [CAPMATINIB], the Kd in assay [1], in assay [2], in assay [3], in assay [4], in assay [5] and in assay [6] was > 30 µM (inactive) in each case. In addition, the Kd in assay [7] was > 30 µM (inactive).
For `CNC(=O)c1ccc(C)c(-n2c(C)cc(OCc3ccc(F)cc3F)c(Br)c2=O)c1` [PH-797804], the Kd in assay [1], in assay [2], in assay [3], in assay [4], in assay [5] and in assay [6] was > 30 µM (inactive) each time. The Kd in assay [7] was > 30 µM (inactive).
For the compound `C[C@@H](c1ccc2nccn2c1)n1nnc2ncc(-c3cnn(C)c3)nc21` [SAVOLITINIB], the Kd in assay [1], in assay [2], in assay [3], in assay [4], in assay [5] and in assay [6] was > 30 µM (inactive) throughout. Also, the Kd in assay [7] is > 30 µM (inactive).
For the compound `CN1CCC(COc2cnc(-c3cccc(Cn4nc(-c5cccc(C#N)c5)ccc4=O)c3)nc2)CC1` [TEPOTINIB], the Kd in assay [1], in assay [2], in assay [3], in assay [4], in assay [5] and in assay [6] was > 30 µM (inactive) in each case. For the same compound, the Kd in assay [7] was > 30 µM (inactive).
Consider `CNC(=O)c1cc(Oc2ccc(NC(=O)Nc3ccc(Cl)c(C(F)(F)F)c3)c(F)c2)ccn1` [REGORAFENIB], for which the Kd in assay [1], in assay [2], in assay [3], in assay [4], in assay [5] and in assay [6] was > 30 µM (inactive) each time. In assay [7], the Kd is > 30 µM (inactive).
With `COc1cc2nccc(Oc3ccc(NC(=O)Nc4cc(C)on4)c(Cl)c3)c2cc1OC` [TIVOZANIB], the Kd in assay [1] was > 30 µM (inactive); in assay [2], > 30 µM (inactive); in assay [3], > 30 µM (inactive); in assay [4], > 30 µM (inactive); in assay [5] it was > 30 µM (inactive); in assay [6], 2.38 µM (active). Moreover, the Kd in assay [7] was > 30 µM (inactive).

The record behind these values is ChEMBL document CHEMBL3991601, “The target landscape of clinical kinase drugs” (Science, 2017).
